# Values of other authors in patent US5730986A (priority 1995, dated 1998).
# What was measured:
# [1] = system: insects
# [2] = system: larva of P. xylostella L
# [3] = system: malarial parasites
# [4] = system: pepsinogen; conditions: rat stomach
# [5] = in vivo
# [6] = system: cytochrome P450
smiles,measurement,setting,value
C/C=C(\C)C(=O)O[C@H]1C[C@@H](OC(C)=O)[C@@]2(C(=O)OC)CO[C@H]3[C@@H](O)[C@@](C)([C@]45O[C@@]4(C)[C@H]4C[C@@H]5O[C@@H]5OC=C[C@@]54O)[C@H]4[C@]1(CO[C@]4(O)C(=O)OC)[C@@H]32 [Azadirachtin],pesticide properties,[1],"phagorepellent, antifeadent and systemic growth disruptor properties in insects"
same,activity against larva,[2],active against larva of P. xylostella L
same,inhibition of the development of malarial parasites,[3],inhibitory to the development of malarial parasites
COc1ccc2[nH]c([S+]([O-])Cc3ncc(C)c(OC)c3C)nc2c1 (stereo not drawn) [omeprazole],"secretion, synthesis and gene expression of pepsinogen",[4],"reduces the secretion, synthesis and gene expression of pepsinogen"
[Mg+2].[OH-].[OH-] [Mg(OH)2],adverse reactions,[5],loose stools or diarrhea
CN/C(=N/CCSCc1nc[nH]c1C)NC#N [cimetidine],inhibition of cytochrome P450-catalyzed drug oxidation and hydroxylation of estradiol,[6],inhibits cytochrome P450 -catalyzed drug oxidation and hydroxylation of estradiol
